Source: patent EP0478545B1, “1,2,4-BENZOTRIAZINE OXIDES AS RADIOSENSITIZERS AND SELECTIVE CYTOTOXIC AGENTS” (SRI INTERNATIONAL, priority 1989, dated 1991)
Converted amounts (≈) assume the structure as drawn. Where a name gives a salt, the structure may show the parent alone.

Key:
[1] = Octanol-water partition coefficient (method of Fujita et al.); details: pH 7.4
Determination of LD50 = details: mouse, in vivo; Balb/c female mice 3-5 months of age; ip (or iv) injection in physiological saline
Procedure: LD50 is determined in BALB/c female mice (weighing 20-25 g) following intraperitoneal (ip) injection, unless the compound tested has low lipophilicity and is very soluble, wherein intravenous (iv) administration is used. LD50 values at 1, 2, 5, and 60 days are determined by administering graded doses of the drug dissolved in physiological saline immediately prior to injection.

physchem [2] = experiment: physchem
physchem [3] = details: pH 7.4

Nc1n[n+]([O-])c2cc([N+](=O)[O-])ccc2[n+]1[O-] [Compound 14, 7-nitro-3-amino-1,2,4-benzotriazine 1,4-dioxide]
logP ([1]; octanol/water): -0.97 | solubility (Solubility): 2 mM (≈ 446 µg/mL) | LD50 (Determination of LD50): 1000 µmol/kg

CCN(CC)CCNc1n[n+]([O-])c2cc([N+](=O)[O-])ccc2[n+]1[O-] [Compound 21, 7-nitro-3-(2-N,N-diethylaminoethylamino)-1,2,4-benzotriazine 1,4-dioxide hydrochloride]
logP [1]: -0.2

Nc1n[n+]([O-])c2ccccc2[n+]1[O-] [Compound 22]
solubility (physchem [2]): 13.5 mM (≈ 2410 µg/mL) | LD50 (Determination of LD50): 500 µmol/kg | logP (physchem [3]): -0.32
